Counter-ions that a name gives are not always drawn.
Assays:
Panc 02.03 cells = assay: Panc 02.03 pancreatic cancer xenograft, average tumor volumes in nude/nude mice; assay type: in vivo; settings: single agent, 30 mg/kg i.p. BID 2x/week; day 22
Description: Immunocompromised nude/nude mice are inoculated in the right hind flank with cells harboring a KRas G12D mutation. […] The first group is administered vehicle only. […] Tumor volumes are measured using a caliper every two-three days and tumor volumes are calculated by the formula: […].

[1] = cited from earlier work
CES2 = target: T1, CES2 (Homo sapiens, UniProt O00748); settings: higher affinity than CES1; cited from earlier work
T1 sequence (O00748 27-559): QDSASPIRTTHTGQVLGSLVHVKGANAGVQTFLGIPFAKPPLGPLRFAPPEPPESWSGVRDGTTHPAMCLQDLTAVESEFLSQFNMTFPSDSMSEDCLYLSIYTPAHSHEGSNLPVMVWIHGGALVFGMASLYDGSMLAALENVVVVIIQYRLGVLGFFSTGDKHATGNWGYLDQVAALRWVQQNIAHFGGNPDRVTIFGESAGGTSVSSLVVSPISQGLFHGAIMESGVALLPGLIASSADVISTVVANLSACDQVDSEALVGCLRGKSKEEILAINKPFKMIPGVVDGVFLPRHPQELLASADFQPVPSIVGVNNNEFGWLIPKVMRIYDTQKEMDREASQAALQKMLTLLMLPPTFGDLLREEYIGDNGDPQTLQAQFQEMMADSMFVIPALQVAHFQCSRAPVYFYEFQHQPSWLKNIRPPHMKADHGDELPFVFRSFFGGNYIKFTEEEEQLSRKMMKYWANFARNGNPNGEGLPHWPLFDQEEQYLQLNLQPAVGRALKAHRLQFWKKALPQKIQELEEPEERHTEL

[2] = target: butyrylcholinesterase (hBChE) (Homo sapiens, UniProt P06276); settings: higher activity than CES; cited from earlier work
Sequence of butyrylcholinesterase (hBChE) (P06276 29-602): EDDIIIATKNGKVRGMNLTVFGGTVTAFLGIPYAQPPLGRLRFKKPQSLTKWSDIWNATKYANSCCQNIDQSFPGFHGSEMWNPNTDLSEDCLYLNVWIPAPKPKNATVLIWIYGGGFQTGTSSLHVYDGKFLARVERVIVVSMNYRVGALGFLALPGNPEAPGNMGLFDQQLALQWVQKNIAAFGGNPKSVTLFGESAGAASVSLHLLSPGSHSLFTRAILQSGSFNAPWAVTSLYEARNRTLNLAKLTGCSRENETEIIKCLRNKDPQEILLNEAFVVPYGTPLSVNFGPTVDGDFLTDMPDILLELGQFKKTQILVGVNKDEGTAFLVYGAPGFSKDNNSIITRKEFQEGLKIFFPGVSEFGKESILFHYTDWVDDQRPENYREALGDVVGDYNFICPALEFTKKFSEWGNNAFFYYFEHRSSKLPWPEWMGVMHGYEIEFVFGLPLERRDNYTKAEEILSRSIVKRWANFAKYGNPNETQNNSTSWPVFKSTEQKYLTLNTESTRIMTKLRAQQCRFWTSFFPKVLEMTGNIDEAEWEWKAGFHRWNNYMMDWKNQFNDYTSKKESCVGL

SMILES: C#Cc1c(F)ccc2cc(O)cc(-c3ncc4c(N5C[C@H]6CC[C@@H](C5)N6)nc(OC[C@@]56CCCN5C[C@H](F)C6)nc4c3F)c12 [MRTX1133, 4-(4-((1R,5S)-3,8-diazabicyclo[3.2.1]octan-3-yl)-8-fluoro-2-(((2R,7aS)-2-fluorohexahydro-1Hpyrrolizin-7a-yl)methoxy)pyrido[4,3-d]pyrimidin-7-yl)-5-ethynyl-6-fluoronaphthalen-2-ol]
- tumor growth (Panc 02.03 cells): 72%

SMILES: CCc1c2c(nc3ccc(O)cc13)-c1cc3c(c(=O)n1C2)COC(=O)[C@]3(O)CC [SN-38, ethyl-10-hydroxy-camptothecin]
- time to peak plasma concentration ([1]; after infusion): ≤ 2 h
- distribution half-life ([1]; in vivo): approximately 8 min

SMILES: CCc1c2c(nc3ccc(OC(=O)N4CCC(N5CCCCC5)CC4)cc13)-c1cc3c(c(=O)n1C2)COC(=O)[C@]3(O)CC [Irinotecan, (S)-4,11-diethyl-3,4,12,14-tetrahydro-4-hydroxy-3,14-dioxo-1H-pyrano[3′,4′:6,7]indolizino[1,2-β]quinolin-9-yl ester[1,4′-bipiperidine]-1′-carboxylic acid trihydrate monohydrochloride]
- affinity for irinotecan, CES2 relative to CES1 (CES2): 12.5 fold
- activity for irinotecan, butyrylcholinesterase relative to CES [2]: 6 fold
- fraction of pro-drug hydrolyzed into active metabolite SN-38 ([1]; in vivo): 2-5%

Source: patent US20250249003A1, “COMBINATIONS OF KRAS G12D INHIBITORS WITH IRINOTECAN AND RELATED METHODS OF TREATMENT” (MIRATI THERAPEUTICS, INC., priority 2021, published 2025)
